Measurements reported in US12473263B2, “Bicyclic inhibitors of CBX chromodomains” (Icahn School of Medicine At Mount Sinai, priority 2019, dated 2025).
Each block holds one compound with its values, some of them ahead of it.

Columns and labels:
PC3 cells = assay: MTT assay for cell viability; assay type: cell-based; conditions: doses of 0, 1, 2.5, 3.75, 5.0, 8.0 micromolar
Experimental: The MTT assay is used to measure cellular metabolic activity as an indicator of cell viability, proliferation and cytotoxicity. This colorimetric assay is based on the reduction of a yellow tetrazolium salt (3-(4,5-dimethylthiazol-2-yl)-2,5-diphenyltetrazolium bromide or MTT) to purple formazan crystals by metabolically active cells. The viable cells contain NAD(P)H-dependent oxidoreductase enzymes which reduce the MTT to formazan. The insoluble formazan crystals are dissolved using 1-Propanol as a solubilization solution and the resulting purple colored solution is quantified by measuring absorbance at 570 nanometers (nm) using a multi-well spectrophotometer.
Protocol for MTT Assay: 100,000 PC3 cells were seeded per-well (CRL-1435, ATCC) for each dose of treatment 24 hours before treatment. Cells were quantitated with Countess II Cell Counter (AMQAX1000, Thermofisher Scientific). Cells were maintained at 37° C. with 5% CO2. SMAPs (dissolved in DMSO) were diluted to a stock concentration of 10 mM. Dilutions to the needed concentrations were made in DMEM (SH30022FS, Hyclone, GE Healthcare Life Sciences). Cells were treated with appropriate concentrations of compound. After 24 hours, MTT solution (M5655-1G, Sigma-Aldrich) was added to cells. Formazan crystals of metabolically active cells were dissolved with 1-Propanol (A414-500, ThermoFisher Scientific) and the solution was measured by absorbance at 570 nm (SpectraMax M5e, Molecular Devices).
Examples 1-3, 7-31, and 33-41 have also been studied in the above-described MTT assay for cell viability at four dose treatments (0, 2.5, 5.0, 10.0 micromolar).

[1] = target: (Homo sapiens, UniProt O95931); assay: Fluorescence anisotropy (FP) competition binding assay; conditions: 10 nM FAM-ANRIL as probe
Experimental: Fluorescence Anisotropy Binding Assay
Expression and purification of the first bromodomain (BrD1) of human BRD4 in poly-His tag form was performed using a procedure described in the literature [See Zeng et al. Structure 16, 643-652 (2008) and Zhang et al., J Biol Chem 287, 28840-28851 (2012).] The protein was purified by using affinity chromatography on a nickel-IDA column (Invitrogen), followed by the removal of poly-His tag by thrombin cleavage.
Measurements were obtained after 1 hour incubation of the fluorescent ligand and the protein at 25° C. with Safire 2 microplate reader (Tecan). In the assay, fluorescent ligand concentration was ≤2Kd, and protein concentration was set at which 50-80% of fluorescent ligand is bound. Dissociation constant of a competing ligand was calculated with the correction to Cheng-Prussoff equation introduced by Nicolovska-Coleska and colleagues [Nikolovska-Coleska, Z. et al., Anal Biochem 332, 261-273 (2004). Assuming one-site competitive binding model, the equation used to calculate K1's from IC50 values recovered from fitting data using Prism:
where [I50] is the concentration of free inhibitor at 50% inhibition, [L50], the concentration of free labeled ligand at 50% inhibition, and [P0], concentration of free protein at 0% inhibition. Note that Kd for each protein-probe pair is the limit of resolvable K1 in a competition assay.

CBX7ChD = CBX7ChD (Homo sapiens (Human), UniProt O95931); conditions: cited from earlier work
[2] = tested on: p16INK4a in prostate cancer cells; conditions: cited from earlier work
[3] = Homo sapiens, PC-3, 24 hours treatment

(Homo sapiens, UniProt O95931), sequence (O95931 whole entry, looked up): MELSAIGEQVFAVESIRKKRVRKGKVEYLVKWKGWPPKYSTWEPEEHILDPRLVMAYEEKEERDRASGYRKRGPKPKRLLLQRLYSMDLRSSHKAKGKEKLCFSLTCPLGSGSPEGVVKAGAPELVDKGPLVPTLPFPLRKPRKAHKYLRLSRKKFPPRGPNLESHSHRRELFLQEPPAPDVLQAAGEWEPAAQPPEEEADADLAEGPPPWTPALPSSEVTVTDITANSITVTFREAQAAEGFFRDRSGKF
CBX7ChD, sequence (O95931 11-69): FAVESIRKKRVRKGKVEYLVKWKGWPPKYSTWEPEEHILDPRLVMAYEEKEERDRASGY

SMILES: C#CCn1c(=N)n(CC(O)c2ccc(Cl)c(Cl)c2)c2ccccc21 (stereo not drawn) [Example 6, 1-(3,4-dichlorophenyl)-2-(2-imino-3-(prop-2-yn-1-yl)-2,3-dihydro-1H-benzo[d]imidazol-1-yl)ethan-1-ol]
Kd [1]: 1.53 µM

SMILES: Cc1ccccc1Cn1c(=N)n(CC(O)c2ccc(Cl)c(Cl)c2)c2ccccc21.Cl (stereo not drawn) [MS351]
selectivity for CBX7ChD (over CBX2/4/6/8) (CBX7ChD): selective for CBX7ChD
de-repression of p16INK4a [2]: de-repress

SMILES: Cc1ccc(Cn2cc(Cn3c(=N)n(CC(O)c4ccc(Cl)c(Cl)c4)c4ccccc43)nn2)cc1 (stereo not drawn) [Example 9, 1-(3,4-dichlorophenyl)-2-(2-imino-3-((1-(4-methylbenzyl)-1H-1,2,3-triazol-4-yl)methyl)-2,3-dihydro-1H-benzo[d]imidazol-1-yl)ethan-1-ol]
Kd [1]: 0.108 µM
IC50 (PC3 cells; 24 hours treatment): 900 nM

The remaining lines, values ahead:

IC50 (PC3 cells; [3]): 884 nM
SMILES: Cc1ccccc1Cn1c(=N)n(CC(O)c2ccc(Cl)c(Cl)c2)c2ccc(F)cc21 (stereo not drawn) [Example 2, 1-(3,4-dichlorophenyl)-2-(5-fluoro-2-imino-3-(2-methylbenzyl)-2,3-dihydro-1H-benzo[d]imidazol-1-yl)ethan-1-ol]

IC50 (PC3 cells; [3]): 776 nM
SMILES: Cc1ccccc1Cn1c(=N)n(CC(O)c2ccc(Cl)c(Cl)c2)c2ccc(Cl)cc21 (stereo not drawn) [Example 3, 2-(5-chloro-2-imino-3-(2-methylbenzyl)-2,3-dihydro-1H-benzo[d]imidazol-1-yl)-1-(3,4-dichlorophenyl)ethan-1-ol]

IC50 (PC3 cells; [3]): 1120 nM
SMILES: N=c1n(Cc2cn(-c3ccccc3)nn2)c2cc(Cl)ccc2n1CC(O)c1ccc(Cl)c(Cl)c1 (stereo not drawn) [Example 35, 2-(5-chloro-2-imino-3-((1-phenyl-1H-1,2,3-triazol-4-yl)methyl)-2,3-dihydro-1H-benzo[d]imidazol-1-yl)-1-(3,4-dichlorophenyl)ethanol]

IC50 (PC3 cells; [3]): 1840 nM
SMILES: N=c1n(Cc2cn(Cc3ccccc3F)nn2)c2ccccc2n1CC(O)c1ccc(Cl)c(Cl)c1 (stereo not drawn) [Example 10, 1-(3,4-dichlorophenyl)-2-(3-((1-(2-fluorobenzyl)-1H-1,2,3-triazol-4-yl)methyl)-2-imino-2,3-dihydro-1H-benzo[d]imidazol-1-yl)ethan-1-ol]
